Counter-ions that a name gives are not always drawn.
System: L-687,414-induced hyperlocomotion
Assay: L-687,414-induced hyperlocomotion (Digiscan locomotor activity)
Assay type: in vivo, mouse
Conditions: mice; for inhibition at 30 mg/kg: dose ip 30 mg/kg; for ID50 po: dose producing 50% inhibition of L-687,414-induced hyperlocomotion, p.o. 15 min before s.c. 50 mg/kg L-687,414
Text: The authors described that hyperlocomotion induced by L-687,414 was inhibited by a series of known antipsychotic drugs. […] These findings predict antipsychotic activity for the present compounds, making them useful for the treatment of positive (psychosis) and negative symptoms of schizophrenia, substance abuse, alcohol and drug addiction, obsessive-compulsive disorders, cognitive impairment, bipolar disorders, mood disorders, major depression, resistant depression, anxiety disorders, Alzheimer's disease, autism, Parkinson's disease, chronic pain, borderline personality disorder, sleep disturbances, chronic fatigue syndrome, stiffness, antiinflammatory effects in arthritis and balance problems.
The described compounds of formula I reduce L-687,414-induced hyperlocomotion. This was assessed by using a computerized Digiscan 16 Animal Activity Monitoring System (Omnitech Electronics, Columbus, Ohio) to quantify locomotor activity. Animals were kept under a 12 h light/dark cycle and experiments were performed during the light period. Each activity monitoring chamber consisted of a Plexiglas box (41×41×28 cm; W×L×H) with sawdust bedding on the floor surrounded by invisible horizontal and vertical infrared sensor beams. The test boxes were divided by a Plexiglas cross providing each mouse with 20×20 cm of moving space. Cages were connected to a Digiscan Analyzer linked to a computer that constantly collected the beam status information. Records of photocell beam interruptions for individual animals were taken every 5 min over the duration of the experimental session and the sum of the first 6 periods was used as the final parameter. Compounds were administered either p.o. 15 min before a s.c. injection of 50 mg/kg of L-687,414, or i.p. at the same time as a s.c. injection of 50 mg/kg of L-687,414. Mice were then transferred from their home cage to the recording chambers for a 15-min habituation phase allowing free exploration of the new environment. Horizontal activity was then recorded for a 30-min time period. The % inhibition of L-687,414-induced hyperlocomotion was calculated according to the equation: ((Veh+L-687,414 horizontal activity−drug+L-687,414 horizontal activity)Veh+L-687,414 horizontal activity)×100
ID50 values, defined as doses of each compound producing 50% inhibition of L-687,414-induced hyperlocomotion, were calculated by linear regression analysis of a dose-response data using an Excel-based computer-fitting program.
As data was not presupposed to be normally distributed, groups treated with test compounds were statistically compared with the control (vehicle-treated) group using one-tailed Mann Whitney U tests. In statistics, the Mann-Whitney Utest (also called the Mann-Whitney-Wilcoxon (MWW) or Wilcoxon rank-sum test) is a non-parametric statistical hypothesis test for assessing whether one of two samples of independent observations tends to have larger values than the other. It is one of the most well-known non-parametric significance tests. […] P values given in table 1 are one-tailed since only decreases in locomotion were expected and tested for (Mann, H. B., Whitney, D. R. (1947), “On a Test of Whether one of Two Random Variables is Stochastically Larger than the Other”, Annals of Mathematical Statistics, 18 (1), 50-60).

[1] = Mus musculus, at the same time as s.c. 50 mg/kg L-687,414

CN1C(=O)C(C)(C)c2ccc(-c3cccnc3)cc21 [Example 3, 1,3,3-Trimethyl-6-(pyridin-3-yl)indolin-2-one]
inhibition at 30 mg/kg [1]: 53.4%

CN1C(=O)C(C)(C)c2ccc(-c3cncnc3)cc21 [Example 4, 1,3,3-Trimethyl-6-(pyrimidin-5-yl)indolin-2-one]
inhibition at 30 mg/kg [1]: 74.6%

CC1(C)C(=O)Nc2cc(-c3ccncc3)ccc21 [Example 7, 3,3-Dimethyl-6-(pyridin-4-yl)indolin-2-one]
ID50 po: 29.2 mg/kg

CC1(C)C(=O)Nc2cc(-c3cncnc3)ccc21 [Example 8, 3,3-Dimethyl-6-(pyrimidin-5-yl)indolin-2-one]
inhibition at 30 mg/kg [1]: 52.5%

CN1C(=O)C(C)(C)c2ccc(-c3cnc(N)nc3)cc21 [Example 10, 6-(2-Aminopyrimidin-5-yl)-1,3,3-trimethylindolin-2-one]
inhibition at 30 mg/kg [1]: 97.1%

CN(C)c1ncc(-c2ccc3c(c2)N(C)C(=O)C3(C)C)cn1 [Example 11, 6-(2-(Dimethylamino)pyrimidin-5-yl)-1,3,3-trimethylindolin-2-one]
inhibition at 30 mg/kg [1]: 72.2%

Cc1ncc(-c2ccc3c(c2)N(C)C(=O)C3(C)C)cn1 [Example 12, 1,3,3-Trimethyl-6-(2-methylpyrimidin-5-yl)indolin-2-one]
inhibition at 30 mg/kg [1]: 93.7%

CCc1ncncc1-c1ccc2c(c1)N(C)C(=O)C2(C)C [Example 14, 6-(4-Ethylpyrimidin-5-yl)-1,3,3-trimethylindolin-2-one]
inhibition at 30 mg/kg [1]: 66.4%

CC1(C)C(=O)Nc2cc(-c3cnc(N)nc3)ccc21 [Example 16, 6-(2-Aminopyrimidin-5-yl)-3,3-dimethylindolin-2-one]
inhibition at 30 mg/kg [1]: 89.4%

CC1(C)C(=O)Nc2cc(-c3ccnnc3)ccc21 [Example 17, 3,3-Dimethyl-6-(pyridazin-4-yl)indolin-2-one]
inhibition at 30 mg/kg [1]: 66.7%

Cc1ncccc1-c1ccc2c(c1)NC(=O)C2(C)C [Example 19, 3,3-Dimethyl-6-(2-methylpyridin-3-yl)indolin-2-one]
inhibition at 30 mg/kg [1]: 61.6%

Cc1cnccc1-c1ccc2c(c1)NC(=O)C2(C)C [Example 20, 3,3-Dimethyl-6-(3-methylpyridin-4-yl)indolin-2-one]
inhibition at 30 mg/kg [1]: 47.5%

Cc1ncc(-c2ccc3c(c2)NC(=O)C3(C)C)cn1 [Example 21, 3,3-Dimethyl-6-(2-methylpyrimidin-5-yl)indolin-2-one]
ID50 po: 1.62 mg/kg

CN1C(=O)C(C)(C)c2ccc(-c3cnc4c(c3)CCC4)cc21 [Example 23, 6-(6,7-Dihydro-5H-cyclopenta[b]pyridin-3-yl)-1,3,3-trimethylindolin-2-one]
inhibition at 30 mg/kg [1]: 81.6%

CN1C(=O)C(C)(C)c2ccc(-c3cnc4c(c3)NCCO4)cc21 [Example 25, 6-(2,3-Dihydro-1H-pyrido[2,3-b][1,4]oxazin-7-yl)-1,3,3-trimethylindolin-2-one]
ID50 po: 3.03 mg/kg

Cc1cncc(C)c1-c1ccc2c(c1)N(C)C(=O)C2(C)C [Example 28, 6-(3,5-Dimethyl-pyridin-4-yl)-1,3,3-trimethyl-1,3-dihydro-indol-2-one formate]
inhibition at 30 mg/kg [1]: 68.4%

CN1C(=O)C(C)(C)c2ccc(-c3ccc4nccn4c3)cc21 [Example 30, 6-(Imidazo[1,2-a]pyridin-6-yl)-1,3,3-trimethylindolin-2-one]
inhibition at 30 mg/kg [1]: 49.1%

Cc1ncnc(C)c1-c1ccc2c(c1)N(C)C(=O)C2(C)C [Example 31, 6-(4,6-Dimethyl-pyrimidin-5-yl)-1,3,3-trimethyl-1,3-dihydro-indol-2-one]
inhibition at 30 mg/kg [1]: 81.2%

CN1C(=O)C(C)(C)c2ccc(-c3cccnc3)c(F)c21 [Example 34, 7-Fluoro-1,3,3-trimethyl-6-(pyridin-3-yl)indolin-2-one]
inhibition at 30 mg/kg [1]: 56.9%

Cc1c(-c2cccnc2)ccc2c1N(C)C(=O)C2(C)C [Example 36, 1,3,3,7-Tetramethyl-6-(pyridin-3-yl)indolin-2-one]
inhibition at 30 mg/kg [1]: 79.3%

CN1C(=O)C(C)(C)c2cc(F)c(-c3ccncc3)cc21 [Example 38, 5-Fluoro-1,3,3-trimethyl-6-(pyridin-4-yl)indolin-2-one]
inhibition at 30 mg/kg [1]: 57.3%

CN1C(=O)C(C)(C)c2ccc(-c3ccncc3)c(F)c21 [Example 39, 7-Fluoro-1,3,3-trimethyl-6-pyridin-4-yl-1,3-dihydro-indol-2-one]
inhibition at 30 mg/kg [1]: 77.6%

CN1C(=O)C(C)(C)c2cc(F)c(-c3cncnc3)c(F)c21 [Example 43, 5,7-Difluoro-1,3,3-trimethyl-6-pyrimidin-5-yl-1,3-dihydro-indol-2-one]
inhibition at 30 mg/kg [1]: 60.5%

Cc1ncc(-c2ccc3c(c2)N(CC2CCC2)C(=O)C3(C)C)cn1 [Example 48, 1-(Cyclobutylmethyl)-3,3-dimethyl-6-(2-methylpyrimidin-5-yl)indolin-2-one]
inhibition at 30 mg/kg [1]: 68.6%

Cc1ncc(-c2ccc3c(c2)N(CCCOC2CC2)C(=O)C3(C)C)cn1 [Example 50, 1-(3-Cyclopropoxypropyl)-3,3-dimethyl-6-(2-methylpyrimidin-5-yl)indolin-2-one]
inhibition at 30 mg/kg [1]: 86.3%

Cc1ncc(-c2ccc3c(c2)N(CCO)C(=O)C3(C)C)cn1 [Example 55, 1-(2-Hydroxyethyl)-3,3-dimethyl-6-(2-methylpyrimidin-5-yl)indolin-2-one]
ID50 po: 0.88 mg/kg

Cc1ncc(-c2ccc3c(c2)N(CCCO)C(=O)C3(C)C)cn1 [Example 56, 1-(3-Hydroxypropyl)-3,3-dimethyl-6-(2-methylpyrimidin-5-yl)indolin-2-one]
inhibition at 30 mg/kg [1]: 93.9%

Cc1ncc(-c2ccc3c(c2)N(CCS(C)(=O)=O)C(=O)C3(C)C)cn1 [Example 57]
inhibition at 30 mg/kg [1]: 79.9%

Cc1noc(-c2ccc3c(c2)N(C)C(=O)C3(C)C)n1 [Example 59, 1,3,3-Trimethyl-6-(3-methyl-1,2,4-oxadiazol-5-yl)indolin-2-one]
inhibition at 30 mg/kg [1]: 45.2%

Cc1noc(-c2ccc3c(c2)NC(=O)C3(C)C)n1 [Example 60, 3,3-Dimethyl-6-(3-methyl-1,2,4-oxadiazol-5-yl)indolin-2-one]
inhibition at 30 mg/kg [1]: 24%

CN1C(=O)C(C)(C)c2ccc(-n3ccnc3)cc21 [Example 61, 6-(1H-Imidazol-1-yl)-1,3,3-trimethylindolin-2-one]
ID50 po: 10.71 mg/kg

Cc1cn(-c2ccc3c(c2)NC(=O)C3(C)C)cn1 [Example 63, 3,3-Dimethyl-6-(4-methyl-1H-imidazol-1-yl)indolin-2-one]
inhibition at 30 mg/kg [1]: 68.9%

Cc1ncc(-c2ccc3c(c2)N(C)C(=O)C3(C)C)[nH]1 [Example 67, 1,3,3-Trimethyl-6-(2-methyl-1H-imidazol-5-yl)indolin-2-one]
inhibition at 30 mg/kg [1]: 42.6%

Cc1nnc(-c2ccc3c(c2)N(C)C(=O)C3(C)C)s1 [Example 72, 1,3,3-Trimethyl-6-(5-methyl-1,3,4-thiadiazol-2-yl)indolin-2-one]
inhibition at 30 mg/kg [1]: 67.4%

CN1C(=O)C(C)(C)c2ccc(-c3ccc(C4CC4)nn3)cc21 [Example 79, 6-(6-Cyclopropylpyridazin-3-yl)-1,3,3-trimethyl-indolin-2-one]
inhibition at 20 mg/kg (Mus musculus, dose ip 20 mg/kg, at the same time as s.c. 50 mg/kg L-687,414): 62.5%

Cc1cc(-c2cc3c(cn2)C(C)(C)C(=O)N3C)ccn1 [Example 83, 1,3,3-Trimethyl-6-(2-methyl-4-pyridyl)pyrrolo[3,2-c]pyridin-2-one]
inhibition at 30 mg/kg [1]: 53%

Cn1cc(-c2ccc3c(c2)NC(=O)C3(C)C)cn1 [Example 87, 3,3-Dimethyl-6-(1-methyl-1H-pyrazol-4-yl)indolin-2-one]
inhibition at 30 mg/kg [1]: 82.8%

Cc1ncc(-c2cc3c(cn2)C(C)(C)C(=O)N3)cn1 [Example 92, 3,3-Dimethyl-6-(2-methylpyrimidin-5-yl)-1H-pyrrolo[3,2-c]pyridin-2-one]
inhibition at 30 mg/kg [1]: 80.9%

Cc1nnc(-c2ccc3c(c2)N(C)C(=O)C3(C)C)o1 [Example 93, 1,3,3-Trimethyl-6-(5-methyl-1,3,4-oxadiazol-2-yl)indolin-2-one]
inhibition at 30 mg/kg [1]: 68.6%

Cc1nnc(-c2ccc3c(c2)NC(=O)C3(C)C)o1 [Example 106, 3,3-Dimethyl-6-(5-methyl-1,3,4-oxadiazol-2-yl)indolin-2-one]
inhibition at 30 mg/kg [1]: 75.7%
